Experimental data published in US10004701B2, “Methods and compositions for treating infection” (UNIVERSITY OF ROCHESTER, priority 2012, dated 2018).
Counter-ions that a name gives are not always drawn. Like-named read-outs stand apart in the source and are kept apart here.

Legend:
Assay in all cases: AK assay 384-well format, Prestwick library screening
K. pneumoniae = assay type: cell-based, Klebsiella pneumoniae; details: 50 μM final drug concentration; for fold induction at 50 µM: Klebsiella pneumoniae, 3 h
P. aeruginosa = assay type: cell-based, Pseudomonas aeruginosa; details: 50 μM final drug concentration; for fold induction at 50 µM: Pseudomonas aeruginosa, 3 h
[1] = system: S. aureus strain USA300-0114; assay type: cell-based, Staphylococcus aureus; details: 50 μM final drug concentration; for fold induction at 50 µM: Staphylococcus aureus, USA300, 3 h
E. cloacae = assay type: cell-based, Enterobacter cloacae; details: 50 μM final drug concentration; for fold induction at 50 µM: Enterobacter cloacae, 3 h
E. coli = assay type: cell-based, Escherichia coli; details: 50 μM final drug concentration; for fold induction at 50 µM: Escherichia coli, 3 h
[2] = system: A. baumannii strain 98-37-09; assay type: cell-based, Acinetobacter baumannii; details: 50 μM final drug concentration; for fold induction at 50 µM: Acinetobacter baumannii, 983709, 3 h
E. faecium = assay type: cell-based, Enterococcus faecium; details: 50 μM final drug concentration; for fold induction at 50 µM: Enterococcus faecium, 3 h
[3] = planktonic, cutoff for positive-scoring molecules 3-fold increase, read-out: AK-based Prestwick Library Screening Results, K. pneumoniae (fold increase in extracellular AK activity)
[4] = planktonic, cutoff for positive-scoring molecules 3-fold increase, read-out: AK-based Prestwick Library Screening Results, P. aeruginosa (fold increase in extracellular AK activity)
[5] = planktonic, cutoff for positive-scoring molecules 3-fold increase, read-out: AK-based Prestwick Library Screening Results, S. aureus (fold increase in extracellular AK activity)
[6] = planktonic, cutoff for positive-scoring molecules 3-fold increase, read-out: AK-based Prestwick Library Screening Results, E. cloacae (fold increase in extracellular AK activity)
[7] = planktonic, cutoff for positive-scoring molecules 3-fold increase, read-out: AK-based Prestwick Library Screening Results, E. coli (fold increase in extracellular AK activity)
[8] = planktonic, cutoff for positive-scoring molecules 3-fold increase, read-out: AK-based Prestwick Library Screening Results, A. baumannii (fold increase in extracellular AK activity)
[9] = planktonic, cutoff for positive-scoring molecules 3-fold increase, read-out: AK-based Prestwick Library Screening Results, E. faecium (fold increase in extracellular AK activity)

## (−)-MK 801 hydrogen maleate
K. pneumoniae; […]
  AK-based Prestwick Library Screening Results, K. pneumoniae (fold increase in extracellular AK activity): 1.0
P. aeruginosa; […]
  AK-based Prestwick Library Screening Results, P. aeruginosa (fold increase in extracellular AK activity): 1.3
[1]; […]
  AK-based Prestwick Library Screening Results, S. aureus (fold increase in extracellular AK activity): 1.1
E. cloacae; […]
  AK-based Prestwick Library Screening Results, E. cloacae (fold increase in extracellular AK activity): 1.9
E. coli; […]
  AK-based Prestwick Library Screening Results, E. coli (fold increase in extracellular AK activity): 1.2
[2]; […]
  AK-based Prestwick Library Screening Results, A. baumannii (fold increase in extracellular AK activity): 1.1
E. faecium; […]
  AK-based Prestwick Library Screening Results, E. faecium (fold increase in extracellular AK activity): 1.0

## COc1ccc(C(=O)c2ccccc2O)c(O)c1 [Dioxybenzone]
K. pneumoniae; [3]
  fold induction at 50 µM: 0.7
P. aeruginosa; [4]
  fold induction at 50 µM: 0.7
[1]; [5]
  fold induction at 50 µM: 0.5
E. cloacae; [6]
  fold induction at 50 µM: 1
E. coli; [7]
  fold induction at 50 µM: 0.8
[2]; [8]
  fold induction at 50 µM: 0.6
E. faecium; [9]
  fold induction at 50 µM: 0.8

## C[C@H](O)C(=O)Nc1c(I)c(C(=O)NC(CO)CO)c(I)c(C(=O)NC(CO)CO)c1I [Iopamidol]
K. pneumoniae; cutoff for positive-scoring molecules 3-fold increase, read-out: AK-based Prestwick Library Screening Results, K. pneumoniae (fold increase in extracellular AK activity)
  fold induction at 50 µM: 1.2
P. aeruginosa; cutoff for positive-scoring molecules 3-fold increase, read-out: AK-based Prestwick Library Screening Results, P. aeruginosa (fold increase in extracellular AK activity)
  fold induction at 50 µM: 1.2
[1]; cutoff for positive-scoring molecules 3-fold increase, read-out: AK-based Prestwick Library Screening Results, S. aureus (fold increase in extracellular AK activity)
  fold induction at 50 µM: 1.3
E. cloacae; cutoff for positive-scoring molecules 3-fold increase, read-out: AK-based Prestwick Library Screening Results, E. cloacae (fold increase in extracellular AK activity)
  fold induction at 50 µM: 1.4
E. coli; cutoff for positive-scoring molecules 3-fold increase, read-out: AK-based Prestwick Library Screening Results, E. coli (fold increase in extracellular AK activity)
  fold induction at 50 µM: 1.2
[2]; cutoff for positive-scoring molecules 3-fold increase, read-out: AK-based Prestwick Library Screening Results, A. baumannii (fold increase in extracellular AK activity)
  fold induction at 50 µM: 1.2
E. faecium; cutoff for positive-scoring molecules 3-fold increase, read-out: AK-based Prestwick Library Screening Results, E. faecium (fold increase in extracellular AK activity)
  fold induction at 50 µM: 1

## COC(=O)C1=C(C)NC(C)=C(C(=O)OCCN(C)Cc2ccccc2)C1c1cccc([N+](=O)[O-])c1 (stereo not drawn) [Nicardipine hydrochloride]
K. pneumoniae; planktonic, cutoff for positive 3-fold increase, read-out: AK-based Prestwick Library Screening Results, K. pneumoniae (fold increase in extracellular AK activity)
  fold induction at 50 µM: 1
P. aeruginosa; planktonic, cutoff for positive 3-fold increase, read-out: AK-based Prestwick Library Screening Results, P. aeruginosa (fold increase in extracellular AK activity)
  fold induction at 50 µM: 1.1
[1]; planktonic, cutoff for positive 3-fold increase, read-out: AK-based Prestwick Library Screening Results, S. aureus (fold increase in extracellular AK activity)
  fold induction at 50 µM: 0.6
E. cloacae; planktonic, cutoff for positive 3-fold increase, read-out: AK-based Prestwick Library Screening Results, E. cloacae (fold increase in extracellular AK activity)
  fold induction at 50 µM: 1.4
E. coli; planktonic, cutoff for positive 3-fold increase, read-out: AK-based Prestwick Library Screening Results, E. coli (fold increase in extracellular AK activity)
  fold induction at 50 µM: 1.2
[2]; planktonic, cutoff for positive 3-fold increase, read-out: AK-based Prestwick Library Screening Results, A. baumannii (fold increase in extracellular AK activity)
  fold induction at 50 µM: 1.3
E. faecium; planktonic, cutoff for positive 3-fold increase, read-out: AK-based Prestwick Library Screening Results, E. faecium (fold increase in extracellular AK activity)
  fold induction at 50 µM: 1.1

## CCC(=O)O[C@H]1CC[C@H]2[C@@H]3CCC4=CC(=O)CC[C@]4(C)[C@H]3CC[C@]12C [Testosterone propionate]
K. pneumoniae; planktonic K. pneumoniae, 384-well, […], read-out: AK-based Prestwick Library Screening Results: K. pneumoniae (increase in extracellular AK activity)
  fold induction at 50 µM: 0.4
P. aeruginosa; planktonic P. aeruginosa, 384-well, […], read-out: AK-based Prestwick Library Screening Results: P. aeruginosa (increase in extracellular AK activity)
  fold induction at 50 µM: 0.4
[1]; planktonic S. aureus, 384-well, […], read-out: AK-based Prestwick Library Screening Results: S. aureus (increase in extracellular AK activity)
  fold induction at 50 µM: 0.3
E. cloacae; planktonic E. cloacae, 384-well, […], read-out: AK-based Prestwick Library Screening Results: E. cloacae (increase in extracellular AK activity)
  fold induction at 50 µM: 0.3
E. coli; planktonic E. coli, 384-well, […], read-out: AK-based Prestwick Library Screening Results: E. coli (increase in extracellular AK activity)
  fold induction at 50 µM: 0.5
[2]; planktonic A. baumannii, 384-well, […], read-out: AK-based Prestwick Library Screening Results: A. baumannii (increase in extracellular AK activity)
  fold induction at 50 µM: 0.5
E. faecium; planktonic E. faecium, 384-well, […], read-out: AK-based Prestwick Library Screening Results: E. faecium (increase in extracellular AK activity)
  fold induction at 50 µM: 0.9

## C#C[C@]1(O)CC[C@H]2[C@@H]3CCC4=C(CCC(=O)C4)[C@H]3CC[C@@]21C [Norethynodrel]
K. pneumoniae; 384-well format, cutoff for positive-scoring molecules 3-fold increase, read-out: AK-based Prestwick Library Screening Results, K. pneumoniae (increase in extracellular AK activity)
  fold induction at 50 µM: 0.7
P. aeruginosa; 384-well format, cutoff for positive-scoring molecules 3-fold increase, read-out: AK-based Prestwick Library Screening Results, P. aeruginosa (increase in extracellular AK activity)
  fold induction at 50 µM: 0.8
[1]; 384-well format, cutoff for positive-scoring molecules 3-fold increase, read-out: AK-based Prestwick Library Screening Results, S. aureus (increase in extracellular AK activity)
  fold induction at 50 µM: 0.7
E. cloacae; 384-well format, cutoff for positive-scoring molecules 3-fold increase, read-out: AK-based Prestwick Library Screening Results, E. cloacae (increase in extracellular AK activity)
  fold induction at 50 µM: 1
E. coli; 384-well format, cutoff for positive-scoring molecules 3-fold increase, read-out: AK-based Prestwick Library Screening Results, E. coli (increase in extracellular AK activity)
  fold induction at 50 µM: 0.9
[2]; 384-well format, cutoff for positive-scoring molecules 3-fold increase, read-out: AK-based Prestwick Library Screening Results, A. baumannii (increase in extracellular AK activity)
  fold induction at 50 µM: 0.7
E. faecium; 384-well format, cutoff for positive-scoring molecules 3-fold increase, read-out: AK-based Prestwick Library Screening Results, E. faecium (increase in extracellular AK activity)
  fold induction at 50 µM: 0.9

## C[C@]12N[C@H](Cc3ccccc31)c1ccccc12 [Dizocilpine maleate]
K. pneumoniae; 384-well format, […], read-out: AK-based Prestwick Library Screening Results, K. pneumoniae (increase in extracellular AK activity)
  fold induction at 50 µM: 0.7
P. aeruginosa; 384-well format, […], read-out: AK-based Prestwick Library Screening Results, P. aeruginosa (increase in extracellular AK activity)
  fold induction at 50 µM: 0.9
[1]; 384-well format, […], read-out: AK-based Prestwick Library Screening Results, S. aureus (increase in extracellular AK activity)
  fold induction at 50 µM: 0.7
E. cloacae; 384-well format, […], read-out: AK-based Prestwick Library Screening Results, E. cloacae (increase in extracellular AK activity)
  fold induction at 50 µM: 1
E. coli; 384-well format, […], read-out: AK-based Prestwick Library Screening Results, E. coli (increase in extracellular AK activity)
  fold induction at 50 µM: 0.9
[2]; 384-well format, […], read-out: AK-based Prestwick Library Screening Results, A. baumannii (increase in extracellular AK activity)
  fold induction at 50 µM: 0.8
E. faecium; 384-well format, […], read-out: AK-based Prestwick Library Screening Results, E. faecium (increase in extracellular AK activity)
  fold induction at 50 µM: 0.9

## Nc1ccc(C(=O)NCC(=O)O)cc1 [Aminohippuric acid]
K. pneumoniae; [3]
  fold induction at 50 µM: 0.6
P. aeruginosa; [4]
  fold induction at 50 µM: 0.7
[1]; [5]
  fold induction at 50 µM: 0.6
E. cloacae; [6]
  fold induction at 50 µM: 0.8
E. coli; [7]
  fold induction at 50 µM: 0.7
[2]; [8]
  fold induction at 50 µM: 0.7
E. faecium; [9]
  fold induction at 50 µM: 0.9

## CN(C(=O)C(Cl)Cl)c1ccc(OC(=O)c2ccco2)cc1 [Diloxanide furoate]
K. pneumoniae; [3]
  fold induction at 50 µM: 0.7
P. aeruginosa; [4]
  fold induction at 50 µM: 1
[1]; [5]
  fold induction at 50 µM: 0.7
E. cloacae; [6]
  fold induction at 50 µM: 1.2
E. coli; [7]
  fold induction at 50 µM: 1
[2]; [8]
  fold induction at 50 µM: 0.9
E. faecium; [9]
  fold induction at 50 µM: 0.8
